Data as given in US5684013A, “Tricyclic compounds useful for inhibition of g-protein function and for treatment of proliferative diseases” (Schering Corporation, priority 1995, dated 1997).
Values joined by “and” are separate entries in the source; they are usually repeats but may differ in a detail not shown here. Equal entries are not always repeated.

System: Normal human HEPM fibroblasts
Assay: Cell Mat Assay: inhibition of normal cell growth (cell mat)
Assay type: cell-based
Conditions: Fibroblast, mIC50, normal cell monolayer
Experimental: (§1) Normal human HEPM fibroblasts were planted in 3.5 cm dishes at a density of 5×10^4 cells/dish in 2 ml growth medium, and incubated for 3-5 d to achieve confluence. Medium was aspirated from each dish and the indicator tumor cells, T24-BAG4 human bladder carcinoma cells expressing an activated H-ras gene, were planted on top of the fibroblast monolayer at a density of 2×10^3 cells/dish in 2 ml growth medium, and allowed to attach overnight. Compound-induced colony inhibition was assayed by addition of serial dilutions of compound directly to the growth medium 24 h after tumor cell planting, and incubating cells for an additional 14 d to allow colony formation. Assays were terminated by rinsing monolayers twice with phosphate-buffered saline (PBS), fixing the monolayers with a 1% glutaraldehyde solution in PBS, then visualizing tumor cells by staining with X-Gal (Price, J., et al., Lineage analysis in the vertebrate nervous system by retrovirus-mediated gene transfer, Proc. Natl. Acad. Sci. 84, 156-160(1987)). In the colony inhibition assay, compounds were evaluated on the basis of two IC50 values: the concentration of drug required to prevent the increase in tumor cell number by 50% (tIC50) and the concentration of drug required to reduce the density of cells comprising the cell mat by 50% (mIC50). Both IC50 values were obtained by determining the density of tumor cells and mat cells by visual inspection and enumeration of cells per colony and the number of colonies under the microscope. The therapeutic index of the compound was quantitatively expressed as the ratio of mIC50 /tIC50, with values greater than one indicative of tumor target specificity.

Row | SMILES | IC50
1 | O=S(=O)(c1ccc(F)cc1)N1CCC/C(=C2\c3ccc(Cl)cc3CCc3cccnc32)C1 [Compound E-2H] | > 25 µM

System: T24-BAG4 human bladder carcinoma cells
Assay: Cell Mat Assay: inhibition of tumor cell growth
Assay type: cell-based
Conditions: 336 h, tIC50, 14 d colony formation
Experimental: as §1

Row | IC50 | SMILES
2 | 12.5 µM | O=S(=O)(c1ccc(F)cc1)N1CCC/C(=C2\c3ccc(Cl)cc3CCc3cccnc32)C1 [Compound E-2H]

Biological target: T1, farnesyl protein transferase (FPT) (Rattus norvegicus, UniProt Q02293+Q04631)
T1 construct: were partially purified from rat brain by ammonium sulfate fractionation; from tissue; host or cells: rat brain
Assay: In vitro enzyme assay: inhibition of farnesyl protein transferase (FPT), Ras-CVLS farnesylation
Assay type: biochemical
Conditions: 14 μM; read-out: FPT inhibition (percent)
Description: 1. In vitro enzyme assays: Inhibition of farnesyl protein transferase and geranylgeranyl protein transferase.
Both farnesyl protein transferase (FPT) and geranylgeranyl protein transferase (GGPT) I were partially purified from rat brain by ammonium sulfate fractionation followed by Q-Sepharose (Pharmacia, Inc.) anion exchange chromatography essentially as described by Yokoyama et al (Yokoyama, K., et al., (1991), A protein geranylgeranyltransferase from bovine brain: Implications for protein prenylation specificity, Proc. Natl. Acad. Sci USA 88: 5302-5306, the disclosure of which is incorporated herein by reference thereto). Human farnesyl protein transferase was also expressed in E. coli, using cDNA clones encoding both the a and b subunits. The methods used were similar to those published (Omer, C. et al., (1993), Characterization of recombinant human farnesyl protein transferase: Cloning, expression, farnesyl diphosphate binding, and functional homology with yeast prenyl-protein transferases, Biochemistry 32:5167-5176). Human farnesyl protein transferase was partially-purified from the soluble protein fraction of E. coli as described above. the tricyclic farnesyl protein transferase inhibitors disclosed herein inhibited both human and rat enzyme with similar potencies. Two forms of val^12 -Ha-Ras protein were prepared as substrates for these enzymes, differing in their carboxy terminal sequence. One form terminated in cysteine-valine-leucine-serine (Ras-CVLS) the other in cystein-valine-leucine-leucine (Ras-CVLL). Ras-CVLS is a substrate for the farnesyl protein transferase while Ras-CVLL is a substrate for geranylgeranyl protein transferase I. The cDNAs encoding these proteins were constructed so that the proteins contain an amino-terminal extension of 6 histidine residues. Both proteins were expressed in Escherichia coli and purified using metal chelate affinity chromatography. The radiolabelled isoprenyl pyrophosphate substrates, [^3 H]farnesyl pyrophosphate and [^3 H]geranylgeranyl pyrophosphate, were purchased from DuPont/New England Nuclear.
Several methods for measuring farnesyl protein transferase activity have been described (Reiss et al 1990, Cell 62: 81; Schaber et al 1990, J. Biol. Chem. 265: 14701; Manne et al 1990, PNAS 87: 7541; and Barbacid & Manne 1993, U.S. Pat. No. 5,185,248). The activity was assayed by measuring the transfer of [^3 H]farnesyl from [^3 H]farnesyl pyrophosphate to Ras-CVLS using conditions similar to those described by Reiss et al. 1990 (Cell 62: 81) The reaction mixture contained 40 mM Hepes, pH 7.5; 20 mM magnesium chloride; 5 mM dithiothreitol; 0.25 μM [^3 H]farnesyl pyrophosphate; […] Q-Sepharose-purified farnesyl protein transferase; the indicated concentration of tricyclic compound or dimethylsulfoxide (DMSO) vehicle control (5% DMSO final); and […] Ras-CVLS in a total volume of […]. The reaction was allowed to proceed for 30 minutes at room temperature and then stopped with 0.5 ml of 4% sodium dodecyl sulfate (SDS) followed by 0.5 ml of cold 30% trichloracetic acid (TCA). Samples were allowed to sit on ice for 45 minutes and precipitated Ras protein was then collected on GF/C filter paper mats using a Brandel cell harvester. Filter mats were washed once with 6% TCA, 2% SDS and radioactivity was measured in a Wallac 1204 Betaplate BS liquid scintillation counter. Percent inhibition was calculated relative to the DMSO vehicle control.

Row | inhibition at 14 µM | SMILES
3 | 11% | O=C(Cc1ccncc1)N1CC/C(=C2/c3ccc(Cl)cc3CCc3cccnc32)C1 [Compound E-3A]
4 | 37% | O=C(Cc1ccncc1)N1CC/C(=C2\c3ccc(Cl)cc3CCc3cccnc32)C1 [Compound E-3M]

Same assay, conditions: 15 μM; read-out: FPT inhibition (percent)

Row | inhibition at 15 µM | SMILES
5 | 15% | CS(=O)(=O)N1CCC/C(=C2\c3ccc(Cl)cc3CCc3cccnc32)C1 [Compound E-2M]

Same assay, conditions: 42 μM; read-out: FPT inhibition (percent)

Row | inhibition at 42 µM | SMILES
6 | 33% | COc1ccc(S(=O)(=O)N2CCC/C(=C3\c4ccc(Cl)cc4CCc4cccnc43)C2)cc1 [Compound E-2G]

Same assay, conditions: 50 μM; read-out: FPT inhibition (percent)

Row | inhibition at 50 µM | SMILES
7 | 33% | O=C(c1ccco1)N1CC/C(=C2/c3ccc(Cl)cc3CCc3cccnc32)C1 [Compound E-3B]

Same assay, conditions: Table 2

Row | FPT IC50 | SMILES
8 | inactive | O=C(c1ccccc1)N1CCC/C(=C2\c3ccc(Cl)cc3CCc3cccnc32)C1 [Compound E-7]

Same assay, conditions: Table 2; read-out: FPT IC50

Row | IC50 | SMILES
9 | < 0.45 µM and 0.52 µM | O=S(=O)(c1cccs1)N1CC/C(=C2\c3ccc(Cl)cc3CCc3cccnc32)C1 [Compound E-1]
10 | > 12 µM | Cc1cc(C)c(S(=O)(=O)N2CCC/C(=C3\c4ccc(Cl)cc4CCc4cccnc43)C2)c(C)c1 [Compound E-2L]
11 | 0.97 µM | O=S(=O)(c1cccnc1)N1CCC/C(=C2\c3ccc(Cl)cc3CCc3cccnc32)C1 [Compound E-4]
12 | 33.5 µM | CC(=O)Nc1ccc(S(=O)(=O)N2CCC/C(=C3/c4ccc(Cl)cc4CCc4cccnc43)C2)cc1 [Compound E-2T]
13 | 4.8 µM | O=S(=O)(c1cccs1)N1CCC/C(=C2/c3ccc(Cl)cc3CCc3cccnc32)C1 [Compound E-1J]
14 | 3.3 µM | O=S(=O)(c1ccccc1)N1CCC/C(=C2/c3ccc(Cl)cc3CCc3cccnc32)C1 [Compound E-2P]
15 | > 14 µM | O=C(Cc1ccncc1)N1CCC/C(=C2/c3ccc(Cl)cc3CCc3cccnc32)C1 [Compound E-3K]
16 | > 14.4 µM | O=C(c1cccnc1)N1CCC/C(=C2\c3ccc(Cl)cc3CCc3cccnc32)C1 [Compound E-7A]
17 | > 45 µM | O=C(CCc1ccccc1)N1CCC/C(=C2\c3ccc(Cl)cc3CCc3cccnc32)C1 [Compound E-3G]
18 | > 40 µM | O=[N+]([O-])c1ccc(S(=O)(=O)N2CCC/C(=C3/c4ccc(Cl)cc4CCc4cccnc43)C2)cc1 [Compound E-2Q]
19 | 7.8 µM | O=C(Cc1cccnc1)N1CCC/C(=C2\c3ccc(Cl)cc3CCc3cccnc32)C1 [Compound E-3E]
20 | > 14 µM | O=C(Cc1ccncc1)N1CCC/C(=C2\c3ccc(Cl)cc3CCc3cccnc32)C1 [Compound E-3F]
21 | 6.4 µM | O=S(=O)(c1ccccc1)N1CCCC(C2c3ccc(Cl)cc3C=Cc3cccnc32)C1 (centres unmarked) [Compound E-2U]
22 | 4.2 µM | O=C(CSc1ccncc1)N1CC/C(=C2\c3ccc(Cl)cc3CCc3cccnc32)C1 [Compound E-3N]
23 | > 13 µM | Cc1ccc(S(=O)(=O)N2CCC/C(=C3\c4ccc(Cl)cc4CCc4cccnc43)C2)cc1 [Compound E-2K]
24 | > 14 µM | O=C(Cc1ccccc1)N1CCC/C(=C2\c3ccc(Cl)cc3CCc3cccnc32)C1 [Compound E-7B]
25 | > 43 µM | O=S(=O)(c1ccc(F)cc1)N1CCC/C(=C2/c3ccc(Cl)cc3CCc3cccnc32)C1 [Compound E-2S]
26 | 44 µM | CS(=O)(=O)N1CCCC(C2c3ccc(Cl)cc3C=Cc3cccnc32)C1 (centres unmarked) [Compound E-2V]

Row | IC50 | SMILES
27 | > 34 µM | O=C(NCc1ccc(S(=O)(=O)N2CCC/C(=C3/c4ccc(Cl)cc4CCc4cccnc43)C2)s1)c1ccccc1 [Compound E-1K]
28 | 7.5 µM | O=S(=O)(c1cccnc1)N1CCCC(C2c3ccc(Cl)cc3C=Cc3cccnc32)C1 (centres unmarked) [Compound E-4A]
29 | > 45 µM | O=C(CCc1ccccc1)N1CCC/C(=C2/c3ccc(Cl)cc3CCc3cccnc32)C1 [Compound E-3L]
30 | > 13 µM | O=C(Sc1ccccc1)N1CCC/C(=C2\c3ccc(Cl)cc3CCc3cccnc32)C1 [Compound E-6]
31 | > 39.4 µM | CC(=O)Nc1ccc(S(=O)(=O)N2CCC/C(=C3\c4ccc(Cl)cc4CCc4cccnc43)C2)cc1 [Compound E-2J]
32 | 2.8 µM | O=S(=O)(c1ccccc1)N1CC/C(=C2\c3ccccc3CCc3cccnc32)C1 [Compound E-2C]
33 | 1.34 µM | O=S(=O)(c1ccc(F)cc1)N1CCC/C(=C2\c3ccc(Cl)cc3CCc3cccnc32)C1 [Compound E-2H]
34 | 0.58 µM | O=S(=O)(c1ccccc1)N1CCC/C(=C2\c3ccc(Cl)cc3CCc3cc(Br)cnc32)C1 [Compound E-2D]
35 | 6.9 µM | O=C(CSc1ccncc1)N1CC/C(=C2/c3ccc(Cl)cc3CCc3cccnc32)C1 [Compound E-3]
36 | 0.84 µM | O=S(=O)(c1cccs1)N1CCC/C(=C2\c3ccc(Cl)cc3CCc3cc(Br)cnc32)C1 [Compound E-1D]
37 | > 42 µM | COc1ccc(S(=O)(=O)N2CCC/C(=C3/c4ccc(Cl)cc4CCc4cccnc43)C2)cc1 [Compound E-2R]
38 | 3.3 µM | O=S(=O)(c1cccs1)N1CC/C(=C2\c3ccccc3CCc3cccnc32)C1 [Compound E-1B]
39 | 8.8 µM | O=S(=O)(c1cccnc1)N1CCC/C(=C2/c3ccc(Cl)cc3CCc3cccnc32)C1 [Compound E-4B]
40 | > 13 µM | O=S(=O)(Cc1ccccc1)N1CCC/C(=C2\c3ccc(Cl)cc3CCc3cccnc32)C1 [Compound E-2N]
41 | > 14 µM | O=C(Nc1ccccc1)N1CCC/C(=C2\c3ccc(Cl)cc3CCc3cccnc32)C1 [Compound E-5]
42 | 8 µM | O=C(Cc1cccnc1)N1CCCC(C2c3ccc(Cl)cc3CCc3cccnc32)C1 (centres unmarked) [Compound E-3C]
43 | 5.1 µM | O=C(Cc1cccnc1)N1CCC/C(=C2/c3ccc(Cl)cc3CCc3cccnc32)C1 [Compound E-3J]
44 | > 13.9 µM | O=C(Cc1ccncc1)N1CCCC(C2c3ccc(Cl)cc3CCc3cccnc32)C1 (centres unmarked) [Compound E-3D]
